Columns and labels:
[1] = Cytotoxicity against green monkey Vero cells incubated for 48 hrs by resazurin dye based assay; assay type: toxicity, cell-based; details: African green monkey (Chlorocebus sabaeus)
[2] = Cytotoxicity against human […]-differentiated THP-1 cells incubated for 72 hrs by resazurin dye based assay; assay type: toxicity, cell-based
Leishmania donovani [3] = assay: Antileishmanial activity against Leishmania donovani 9515 (MHOM/IN/95/9151) promastigote incubated for 48 hrs by resazurin dye based plate reader assay; assay type: functional, organism-based
Leishmania donovani [4] = assay: Antileishmanial activity against Leishmania donovani 9515 (MHOM/IN/95/9151) amastigote infected in THP-1 cells assessed as inhibition of parasite growth incubated for 72 hrs by resazurin dye based plate reader assay; assay type: functional, organism-based; details: THP-1, 72 h
Leishmania donovani [5] = assay: Leishmanicidal activity against Leishmania donovani 9515 (MHOM/IN/95/9151) amastigote infected in THP-1 cells incubated for 72 hrs by resazurin dye based plate reader assay; assay type: functional, organism-based; details: THP-1, 72 h
[6] = Cytotoxicity against MDBK cells incubated for 72 hrs by CCK8 assay; assay type: toxicity, cell-based, Bos taurus; details: cattle, MDBK cells
[7] = tested on: Trypanosoma brucei gambiense; assay: Trypanocidal activity against Trypanosoma brucei gambiense IL1922 incubated for 72 hrs by CellTiter-Glo reagent based […] analysis; assay type: functional, organism-based; details: IL1922, 72 h
[8] = tested on: Trypanosoma brucei rhodesiense; assay: Trypanocidal activity against Trypanosoma brucei rhodesiense IL1501 incubated for 72 hrs by CellTiter-Glo reagent based […] analysis; assay type: functional, organism-based; details: IL1501, 72 h
[9] = tested on: Trypanosoma brucei brucei; assay: Trypanocidal activity against Trypanosoma brucei brucei GUTat3.1 incubated for 72 hrs by CellTiter-Glo reagent based […] analysis; assay type: functional, organism-based; details: GUTat3.1, 72 h
Trypanosoma congolense = assay: Trypanocidal activity against Trypanosoma congolense IL3000 incubated for 72 hrs by CellTiter-Glo reagent based […] analysis; assay type: functional, organism-based; details: IL3000, 72 h
Trypanosoma evansi = assay: Trypanocidal activity against Trypanosoma evansi Tansui incubated for 72 hrs by CellTiter-Glo reagent based […] analysis; assay type: functional, organism-based
Trypanosoma equiperdum = assay: Trypanocidal activity against Trypanosoma equiperdum IVM-t1 incubated for 72 hrs by CellTiter-Glo reagent based […] analysis; assay type: functional, organism-based; details: IVM-t1, 72 h
[10] = Selectivity index, ratio of IC50 for african green monkey Vero cells to IC50 for static antileishmanial activity against Leishmania donovani 9515 (MHOM/IN/95/9151) amastigote; assay type: toxicity, cell-based; details: read-out: Ratio IC50
[11] = Selectivity index, ratio of IC50 for human THP-1 cells to IC50 for static antileishmanial activity against Leishmania donovani 9515 (MHOM/IN/95/9151) amastigote; assay type: toxicity, cell-based; details: read-out: Ratio IC50
[12] = Selectivity index, ratio of IC50 for african green monkey Vero cells to IC50 for leishmanicidal activity against Leishmania donovani 9515 (MHOM/IN/95/9151) amastigote; assay type: toxicity, cell-based; details: read-out: Ratio IC50
[13] = Selectivity index, ratio of IC50 for human THP-1 cells to IC50 for leishmanicidal activity against Leishmania donovani 9515 (MHOM/IN/95/9151) amastigote; assay type: toxicity, cell-based; details: read-out: Ratio IC50
[14] = Selectivity index, ratio of CC50 for MDBK to IC50 for Trypanosoma congolense IL3000; assay type: toxicity, cell-based; details: cattle, MDBK cells; read-out: Ratio CC50/IC50
[15] = Selectivity index, ratio of CC50 for MDBK to IC50 for Trypanosoma brucei rhodesiense IL1501; assay type: toxicity, cell-based; details: cattle, MDBK cells; read-out: Ratio CC50/IC50
[16] = Selectivity index, ratio of IC50 for african green monkey Vero cells to IC50 for Leishmania donovani 9515 (MHOM/IN/95/9151) promastigote; assay type: toxicity, cell-based; details: read-out: Ratio IC50
[17] = Selectivity index, ratio of IC50 for human THP-1 cells to IC50 for Leishmania donovani 9515 (MHOM/IN/95/9151) promastigote; assay type: toxicity, cell-based; details: read-out: Ratio IC50
[18] = Selectivity index, ratio of CC50 for MDBK to IC50 for Trypanosoma brucei gambiense IL1922; assay type: toxicity, cell-based; details: cattle, MDBK cells; read-out: Ratio CC50/IC50
[19] = Selectivity index, ratio of CC50 for MDBK to IC50 for Trypanosoma brucei brucei GUTat3.1; assay type: toxicity, cell-based; details: cattle, MDBK cells; read-out: Ratio CC50/IC50
[20] = Selectivity index, ratio of CC50 for MDBK to IC50 for Trypanosoma evansi Tansui; assay type: toxicity, cell-based; details: cattle, MDBK cells; read-out: Ratio CC50/IC50
[21] = Selectivity index, ratio of CC50 for MDBK to IC50 for Trypanosoma equiperdum IVM-t1; assay type: toxicity, cell-based; details: cattle, MDBK cells; read-out: Ratio CC50/IC50

Row | Structure (SMILES) | IC50 at 48 h [1] | IC50 at 72 h [2] | IC50 (Leishmania donovani [3]) | IC50 (Leishmania donovani [4]) | IC50 (Leishmania donovani [5]) | CC50 at 72 h [6] | IC50 [7] | IC50 [8] | IC50 [9] | IC50 (Trypanosoma congolense) | IC50 (Trypanosoma evansi) | IC50 (Trypanosoma equiperdum) | also measured
1 | C#CCn1cc(/C=N\N=C/C2CC2)c2cc([N+](=O)[O-])ccc21 | 88.4 µM | 51.8 µM | > 10 µM | > 10 µM | > 10 µM | > 340 µM | > 84.9 µM | > 84.9 µM | > 84.9 µM | > 84.9 µM | > 84.9 µM | > 84.9 µM | 
2 | C#CCn1cc(/C=N\N=C\c2ccccn2)c2cc([N+](=O)[O-])ccc21 | > 100 µM | > 100 µM | > 10 µM | 1.59 µM | 3.35 µM | > 121 µM | > 75.5 µM | > 75.5 µM | > 75.5 µM | > 75.5 µM | > 75.5 µM | > 75.5 µM | selectivity ratio [10]: > 63; selectivity ratio [11]: 63; selectivity ratio [12]: > 30; selectivity ratio [13]: > 30
3 | C#CCn1cc(/C=N\N=C\c2cnc[nH]2)c2cc([N+](=O)[O-])ccc21 | 83.2 µM | 42.5 µM | > 10 µM | > 10 µM | > 10 µM | > 312 µM | > 78 µM | > 78 µM | > 78 µM | 14.8 µM | > 78 µM | > 78 µM | selectivity ratio [14]: > 21
4 | CC1CS(=O)(=O)CCN1/N=C/c1ccc([N+](=O)[O-])o1 (stereo unspecified) [NIFURTIMOX] |  |  |  |  |  |  | 4.58 µM |  |  |  |  |  | 
5 | C#CCn1cc(/C=N\N=C/C)c2cc([N+](=O)[O-])ccc21 | 89 µM | 59.3 µM | > 10 µM | > 10 µM | > 10 µM | > 373 µM | > 93.2 µM | > 93.2 µM | > 93.2 µM | > 93.2 µM | > 93.2 µM | > 93.2 µM | 
6 | C#CCn1ccc2cc([N+](=O)[O-])ccc21 | > 100 µM | > 100 µM | > 10 µM | > 10 µM | > 10 µM | > 500 µM | > 125 µM | > 125 µM | > 125 µM | > 125 µM | > 125 µM | > 125 µM | 
7 | C#CCn1cc(/C=N\N=C/CCC)c2cc([N+](=O)[O-])ccc21 | > 100 µM | 43.9 µM | > 10 µM | > 10 µM | > 10 µM | > 338 µM | > 84.4 µM | 48.5 µM | > 84.4 µM | > 84.4 µM | > 84.4 µM | > 84.4 µM | selectivity ratio [15]: > 6.96
8 | C#CCn1cc(\C=N/N=C/C(C)=C\C)c2cc([N+](=O)[O-])ccc21 | 84.2 µM | > 100 µM | 10.5 µM | 0.32 µM | 1.7 µM | > 281 µM | > 81.2 µM | > 81.2 µM | > 81.2 µM | > 81.2 µM | > 81.2 µM | > 81.2 µM | selectivity ratio [16]: 8; selectivity ratio [17]: 10; selectivity ratio [10]: 226; selectivity ratio [11]: 313; selectivity ratio [12]: 50; selectivity ratio [13]: > 59
9 | Cc1ccc(C(=O)Nc2ccc(S(=O)(=O)O)c3cc(S(=O)(=O)O)cc(S(=O)(=O)O)c23)cc1NC(=O)c1cccc(NC(=O)Nc2cccc(C(=O)Nc3cc(C(=O)Nc4ccc(S(=O)(=O)O)c5cc(S(=O)(=O)O)cc(S(=O)(=O)O)c45)ccc3C)c2)c1 [SURAMIN] |  |  |  |  |  |  |  |  |  |  |  | 0.038 µM | 
10 | C#CCn1cc(/C=N\N=C\c2ccncc2)c2cc([N+](=O)[O-])ccc21 | > 100 µM | 66.4 µM | > 10 µM | > 10 µM | > 10 µM | 267 µM | > 75.5 µM | > 75.5 µM | > 75.5 µM | > 75.5 µM | > 75.5 µM | > 75.5 µM | 
11 | NCCCC(N)(C(=O)O)C(F)F (stereo unspecified) [EFLORNITHINE] |  |  |  |  |  |  | 36.7 µM | 46 µM | 38.6 µM | 16.1 µM | 57.2 µM |  | 
12 | C#CCn1cc(/C=N\N=C\c2nccn2C)c2cc([N+](=O)[O-])ccc21 | 54.7 µM | 29.7 µM | > 10 µM | > 10 µM | > 10 µM | > 302 µM | > 75.5 µM | > 75.5 µM | > 75.5 µM | 12.8 µM | > 75.5 µM | > 75.5 µM | selectivity ratio [14]: > 23.5
13 | O=[N+]([O-])c1ccc2[nH]ccc2c1 | > 100 µM | > 100 µM | > 10 µM | > 10 µM | > 10 µM |  |  |  |  |  |  |  | 
14 | C#CCn1cc(/C=N\N=C\c2ccc([N+](=O)[O-])cc2)c2cc([N+](=O)[O-])ccc21 | 27.5 µM | 25.7 µM | > 10 µM | 9.75 µM | 3.91 µM | > 68.2 µM | > 66.7 µM | > 66.7 µM | > 66.7 µM | 8.84 µM | > 66.7 µM | > 66.7 µM | selectivity ratio [10]: 3; selectivity ratio [11]: 3; selectivity ratio [12]: 7; selectivity ratio [13]: 7; selectivity ratio [14]: > 30.1
15 | N=C(N)c1ccc(/N=N/Nc2ccc(C(=N)N)cc2)cc1 [DIMINAZENE DIACETURATE] |  |  |  |  |  |  |  |  |  | 0.109 µM |  | 0.011 µM | 
16 | N=C(N)c1ccc(OCCCCCOc2ccc(C(=N)N)cc2)cc1 [PENTAMIDINE] |  |  |  |  |  |  | 0.014 µM |  |  | 0.33 µM | 0.001 µM | 0.001 µM | 
17 | C#CCn1cc(/C=N\N=C/CC)c2cc([N+](=O)[O-])ccc21 | > 100 µM | > 100 µM | > 10 µM | > 10 µM | > 10 µM | > 354 µM | 51.6 µM | 75.1 µM | 78.8 µM | > 88.6 µM | 55.4 µM | 56.1 µM | selectivity ratio [18]: > 6.86; selectivity ratio [15]: > 4.72; selectivity ratio [19]: > 4.49; selectivity ratio [20]: > 6.39; selectivity ratio [21]: > 6.3
18 | C#CCn1cc(/C=N\N=C\c2cccn2C)c2cc([N+](=O)[O-])ccc21 |  |  | > 10 µM | > 10 µM | > 10 µM | > 299 µM | > 74.8 µM | > 74.8 µM | > 74.8 µM | > 74.8 µM | > 74.8 µM | > 74.8 µM | 
19 | C#CCn1cc(/C=N\N=C\c2cccnc2)c2cc([N+](=O)[O-])ccc21 | > 100 µM | > 100 µM | > 10 µM | 1.32 µM | 1.46 µM | 111 µM | > 75.5 µM | > 75.5 µM | > 75.5 µM | > 75.5 µM | > 75.5 µM | > 75.5 µM | selectivity ratio [10]: > 76; selectivity ratio [11]: 76; selectivity ratio [12]: > 68; selectivity ratio [13]: > 68
20 | C#CCn1cc(C=O)c2cc([N+](=O)[O-])ccc21 | > 100 µM | 77 µM | > 10 µM | > 10 µM | > 10 µM | > 438 µM | > 110 µM | > 110 µM | > 110 µM | > 110 µM | > 110 µM | > 110 µM | 
21 | C#CCn1cc(/C=N\N=C\C2CCCCC2)c2cc([N+](=O)[O-])ccc21 | > 100 µM | 52.9 µM | > 10 µM | 2.85 µM | > 10 µM | > 297 µM | 16.1 µM | 19.4 µM | 18.6 µM | > 74.3 µM | > 74.3 µM | 21.8 µM | selectivity ratio [10]: > 35; selectivity ratio [11]: 19; selectivity ratio [18]: > 18.4; selectivity ratio [15]: > 15.3; selectivity ratio [19]: > 16; selectivity ratio [21]: > 13.7
22 | C#CCn1cc(/C=N\N)c2cc([N+](=O)[O-])ccc21 | 96.8 µM | 61 µM | > 10 µM | > 10 µM | > 10 µM | 341 µM | > 103 µM | > 103 µM | > 103 µM | > 3.2 µM | > 103 µM | > 103 µM | 

From ChEMBL document CHEMBL6083269, “Design, synthesis, in vitro and in vivo trypanosomaticidal efficacy of novel 5-nitroindolylazines” (Eur J Med Chem, 2024)
